Laboratory results: US20100119479A1, “THERAPEUTIC ANTIVIRAL PEPTIDES” (INTERMUNE, INC., priority 2008, published 2010)

Tests used:
[1] = target: T1, full-length NS3/NS4A-2 (HCV NS3 protease) (Hepatitis C virus genotype 1b, UniProt Q9WMX2); assay: NS3 Inhibition Assay (NS3-NS4 protease assay, RETS1 substrate); type: biochemical; conditions: NS3/NS4A-2 protease
T1 construct: Recombinant E. coli or Baculovirus full-length NS3; host or cells: E. coli or baculovirus (BV) expression
Procedure: NS3 Complex Formation with NS4A-2.
Recombinant E. coli or Baculovirus full-length NS3 was diluted to 3.33 μM with assay buffer and transferred material to an eppendorf tube and placed in a water bath in a 4° C. refrigerator. The appropriate amount of NS4A-2 diluted to […] in assay buffer was added to equal the volume of NS3 above (conversion factor—3.8 mg/272 μL assay buffer). The material was transferred to an eppendorf tube and placed in water bath in a 4° C. refrigerator.
After equilibration to 4° C., equal volumes of NS3 and NS4A-2 solutions were combined in an eppendorf tube, mix gently with a manual pipettor, and incubate mixture for 15 minutes in the 4° C. water bath. Final concentrations in the mixture are 1.67 μM NS3, 4.15 mM NS4A-2 (2485-fold molar excess NS4A-2).
After 15 minutes at 4° C., the NS3/NS4A-2 eppendorf tube was removed and place it in a room temperature water bath for 10 minutes. NS3/NS4A-2 was aliquoted at appropriate volumes and store at −80° C. (E. coli NS3 run at 2 nM in assay, aliquot at 25 μL. BV NS3 run at 3 nM in assay, aliquot at 30 μL).
Step a. Sample compounds were dissolved to 10 mM in DMSO then diluted to 2.5 mM (1:4) in DMSO. Typically, compounds were added to an assay plate at 2.5 mM concentration, yielding upon dilution a starting concentration of 50 microM in the assay inhibition curve. Compounds were serial diluted in assay buffer to provide test solutions at lower concentrations.
Step b. The E. coli. NS3/NS4A-2 was diluted to 4 nM NS3 (1:417.5 of 1.67 μM stock−18 μL1.67 μM stock+7497 μL assay buffer). The BV NS3/NS4A-2 was diluted to 6 nM NS3 (1:278.3 of 1.67 μM stock−24 μL1.67 μM stock+6655 μL assay buffer).
Step c. Using the manual multichannel pipettor, and being careful not to introduce bubbles into the plate, 50 μL assay buffer were added to wells A01-H01 of a black Costar 96-well polypropylene storage plate.
Step d. Using the manual multichannel pipettor, and being careful not to introduce bubbles into the plate, 50 μL of diluted NS3/NS4A-2 from Step b were added to wells A02-H12 of the plate in Step c.
Step e. Using the manual multichannel pipettor, and being careful not to introduce bubbles into the plate, 25 μL of the wells in drug dilution plate in Step a were transferred to corresponding wells in assay plate in Step d. The tips on the multichannel pipettor were changed for each row of compounds transferred.
Step f Using the manual multichannel pipettor, and being careful not to introduce bubbles into the plate, the contentes of the wells from the assay plate in Step e were mixed by aspirating and dispensing 35 μL of the 75 μL in each well five times. The tips on multichannel pipettor were changed for each row of wells mixed.
Step g. The plate was covered with a polystyrene plate lid, and the plate from Step f containing NS3 protease and sample compounds was pre-incubated 10 minutes at room temperature.
While plate from Step g is pre-incubating, the RETS1 substrate was diluted in a 15 mL polypropylene centrifuge tube. The RETS1 substrate was diluted to 8 μM (1:80.75 of 646 μM stock—65 μL 646 μM stock+5184 μL assay buffer).
After the plate in Step g was done pre-incubating, and using the manual multichannel, 25 μL of substrate were added to all wells on the plate. The contents of the wells of the plate were quickly mixed, as in Step f, mixing 65 μL of the 100 μL in the wells.
The plate was read in kinetic mode on the Molecular Devices SpectraMax Gemini XS plate reader. Reader settings: Read time: 30 minutes, Interval: 36 seconds, Reads: 51, Excitation λ: 335 nm, Emission λ: 495 nm, cutoff: 475 nm, Automix: off, Calibrate: once, PMT: high, Reads/well: 6, Vmax pts: 21 or 28/51 depending on length of linearity of reaction
IC50s are determined using a four parameter curve fit equation, and converted to Ki's using the following Km's: […]
Full-length E. coli NS3−2.03 μM
Full-length BV NS3−1.74 μM
where Ki=IC50/(1+[S]/Km))

[2] = test system: HCV sub-genomic replicon, GS4.3 (HuH-7 hepatoma cells); assay: Quantitation by ELISA of NPTII in the HCV sub-genomic replicon, GS4.3; type: cell-based; conditions: Hepatitis C virus, GS4.3 replicon cells, 72 h incubation
Source text: Quantitation by ELISA of the Selectable Marker Protein, Neomycin Phosphotransferase II (NPTII) in the HCV Sub-Genomic Replicon, GS4.3
The HCV sub-genomic replicon (1377/NS3-3′, accession No. AJ242652), stably maintained in HuH-7 hepatoma cells, was created by Lohmann et al. Science 285: 110-113 (1999). The replicon-containing cell culture, designated GS4.3, was obtained from Dr. Christoph Seeger of the Institute for Cancer Research, Fox Chase Cancer Center, Philadelphia, Pa.
GS4.3 cells were maintained at 37° C., 5% CO2, in DMEM (Gibco 11965-092) supplemented with L-glutamine 200 mM (100×) (Gibco25030-081), non-essential amino acids (NEAA)(Biowhittaker 13-114E), heat-inactivated (HI) Fetal Bovine Serum(FBS)(Hyclone SH3007.03) and 750 μg/mL geneticin (G418)(Gibco 10131-035). Cells were sub-divided 1:3 or 4 every 2-3 days.
24 h prior to the assay, GS4.3 cells were collected, counted, and plated in 96-well plates (Costar 3585) at 7500 cells/well in […] standard maintenance medium (above) and incubated in the conditions above. To initiate the assay, culture medium was removed, cells were washed once with PBS (Gibco 10010-023) and 90 μl Assay Medium (DMEM, L-glutamine, NEAA, 10% HI FBS, no G418) was added. Inhibitors were made as a 10× stock in Assay Medium, (3-fold dilutions from 10 μM to […] final concentration, final DMSO concentration 1%), […] were added to duplicate wells, plates were rocked to mix, and incubated as above for 72 h.
An NPTII Elisa kit was obtained from AGDIA, Inc. (Compound direct ELISA test system for Neomycin Phosphotransferase II, PSP 73000/4800). Manufacturer's instructions were followed, with some modifications. 10×PEB-1 lysis buffer was made up to include 500 μM PMSF (Sigma P7626, 50 mM stock in isopropanol). After 72 h incubation, cells were washed once with PBS and […] PEB-1 with PMSF was added per well. Plates were agitated vigorously for 15 minutes, room temperature, then frozen at −70° C. Plates were thawed, lysates were mixed thoroughly, and 100 μl were applied to an NPTII Elisa plate. A standard curve was made. Lysate from DMSO-treated control cells was pooled, serially diluted with PEB-1 with PMSF, and applied to duplicate wells of the ELISA plate, in a range of initial lysate amount of 150 μL-2.5 μL. In addition, 100 μL buffer alone was applied in duplicate as a blank. Plates were sealed and gently agitated at room temperature for 2 h. Following capture incubation, the plates were washed 5×300 μL with PBS-T (0.5% Tween-20, PBS-T was supplied in the ELISA kit). For detection, a 1× dilution of enzyme conjugate diluent MRS-2 (5×) was made in PBS-T, into which 1:100 dilutions of enzyme conjugates A and B were added, as per instructions. Plates were resealed, and incubated with agitation, covered, room temperature, for 2 h. The washing was then repeated and 100 μL, of room temperature TMB substrate was added. After approximately 30 minutes incubation (room temperature, agitation, covered), the reaction was stopped with 50 μL, 3M sulfuric acid. Plates were read at 450 nm on a Molecular Devices Versamax plate reader.
Inhibitor effect was expressed as a percentage of DMSO-treated control signal, and inhibition curves were calculated using a 4-parameter equation: y=A+((B−A)/(1+((C/x)̂D))), where C is half-maximal activity or EC50.

T1 sequence (Q9WMX2 1027-1657): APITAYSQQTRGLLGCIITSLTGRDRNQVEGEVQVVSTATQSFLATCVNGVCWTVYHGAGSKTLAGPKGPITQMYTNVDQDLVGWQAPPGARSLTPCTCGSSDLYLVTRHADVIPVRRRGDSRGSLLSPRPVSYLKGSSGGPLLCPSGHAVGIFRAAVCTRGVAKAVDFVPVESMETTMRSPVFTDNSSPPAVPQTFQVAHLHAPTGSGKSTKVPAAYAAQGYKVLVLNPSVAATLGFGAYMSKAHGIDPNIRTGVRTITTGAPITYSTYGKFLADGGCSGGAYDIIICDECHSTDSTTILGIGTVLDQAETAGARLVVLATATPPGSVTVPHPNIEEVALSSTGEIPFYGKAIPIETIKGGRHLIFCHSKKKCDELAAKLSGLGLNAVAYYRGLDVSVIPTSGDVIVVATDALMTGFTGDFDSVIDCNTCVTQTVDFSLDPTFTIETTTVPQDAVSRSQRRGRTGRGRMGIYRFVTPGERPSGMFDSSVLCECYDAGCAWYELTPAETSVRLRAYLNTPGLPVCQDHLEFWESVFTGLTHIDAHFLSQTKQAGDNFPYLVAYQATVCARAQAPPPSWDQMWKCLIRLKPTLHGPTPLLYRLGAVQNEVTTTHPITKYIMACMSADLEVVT
T1 sequence (Q9WMX2 1658-1711): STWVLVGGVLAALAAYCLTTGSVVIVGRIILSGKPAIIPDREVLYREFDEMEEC

With `CC[C@@H]1CC1(NC(=O)[C@@H]1C[C@@H](OC(=O)N2Cc3cccc(Cl)c3C2)CN1C(=O)[C@@H](Nc1cccnc1)C(C)(C)C)C(=O)NS(=O)(=O)C1CC1` (some centres unmarked) [Compound 1] the IC50 [1] was < 100 nM and the EC50 [2] was < 100 nM.

With `CC[C@@H]1C[C@]1(NC(=O)[C@@H]1C[C@@H](OC(=O)N2Cc3cccc(F)c3C2)CN1C(=O)[C@@H](Nc1ccc(C(=O)OC)cc1)C(C)(C)C)C(=O)NS(=O)(=O)C1CC1` [Compound 2] the IC50 [1] was < 100 nM and the EC50 [2] was 100 to 1000 nM.

With `CC[C@@H]1C[C@]1(NC(=O)[C@@H]1C[C@@H](OC(=O)N2Cc3cccc(F)c3C2)CN1C(=O)[C@@H](Nc1ccc(C(=O)O)cc1)C(C)(C)C)C(=O)NS(=O)(=O)C1CC1` [Compound 3] the IC50 [1] was < 100 nM and the EC50 [2] was > 1000 nM.

`CCOC(=O)c1cccc(N[C@H](C(=O)N2C[C@H](OC(=O)N3Cc4cccc(F)c4C3)C[C@H]2C(=O)N[C@]2(C(=O)NS(=O)(=O)C3CC3)C[C@H]2CC)C(C)(C)C)c1` [Compound 4] was tested, and the IC50 [1] was < 100 nM and the EC50 [2] was 100 to 1000 nM.

For `CC[C@@H]1C[C@]1(NC(=O)[C@@H]1C[C@@H](OC(=O)N2Cc3cccc(F)c3C2)CN1C(=O)[C@@H](Nc1cccc(C(=O)O)c1)C(C)(C)C)C(=O)NS(=O)(=O)C1CC1` [Compound 5], the IC50 [1] was < 100 nM and the EC50 [2] was > 1000 nM.

For `C=C[C@@H]1C[C@]1(NC(=O)[C@@H]1C[C@@H](Oc2nccc3ccccc23)CN1C(=O)[C@@H](Nc1ccc(F)c(C(F)(F)F)c1)C(C)(C)C)C(=O)NS(=O)(=O)C1CC1` [Compound 6], the IC50 [1] was < 100 nM and the EC50 [2] was < 100 nM.

`C=C[C@@H]1C[C@]1(NC(=O)[C@@H]1C[C@@H](Oc2nccc3ccccc23)CN1C(=O)[C@@H](Nc1cc(F)cc(C(F)(F)F)c1)C(C)(C)C)C(=O)NS(=O)(=O)C1CC1` [Compound 7] was tested, and the IC50 [1] was < 100 nM and the EC50 [2] was < 100 nM.

For `CC[C@@H]1C[C@]1(NC(=O)[C@@H]1C[C@@H](OC(=O)N2Cc3cccc(F)c3C2)CN1C(=O)[C@@H](Nc1cccc(C(=O)N2CCN(C)CC2)c1)C(C)(C)C)C(=O)NS(=O)(=O)C1CC1` [Compound 8], the IC50 [1] was < 100 nM and the EC50 [2] was > 1000 nM.

With `CC[C@@H]1C[C@]1(NC(=O)[C@@H]1C[C@@H](OC(=O)N2Cc3cccc(F)c3C2)CN1C(=O)[C@@H](Nc1cccc(C(=O)N2CCNCC2)c1)C(C)(C)C)C(=O)NS(=O)(=O)C1CC1` [Compound 9] the IC50 [1] was < 100 nM and the EC50 [2] was > 1000 nM.

`CC[C@@H]1C[C@]1(NC(=O)[C@@H]1C[C@@H](OC(=O)N2Cc3cccc(F)c3C2)CN1C(=O)[C@@H](Nc1cccc(S(=O)(=O)N2CCOCC2)c1)C(C)(C)C)C(=O)NS(=O)(=O)C1CC1` [Compound 10] was tested, and the IC50 [1] was < 100 nM and the EC50 [2] was > 1000 nM.

For `CC[C@@H]1C[C@]1(NC(=O)[C@@H]1C[C@@H](OC(=O)N2Cc3cccc(F)c3C2)CN1C(=O)[C@@H](Nc1ccc(C(=O)N2CCOCC2)cc1)C(C)(C)C)C(=O)NS(=O)(=O)C1CC1` [Compound 11], the IC50 [1] was < 100 nM and the EC50 [2] was > 1000 nM.

In the case of `CC[C@@H]1C[C@]1(NC(=O)[C@@H]1C[C@@H](OC(=O)N2Cc3cccc(F)c3C2)CN1C(=O)[C@@H](Nc1cccc(OC(F)(F)F)c1)C(C)(C)C)C(=O)NS(=O)(=O)C1CC1` [Compound 12], the IC50 [1] is reported as < 100 nM and the EC50 [2] is reported as < 100 nM.

In the case of `CC[C@@H]1C[C@]1(NC(=O)[C@@H]1C[C@@H](OC(=O)N2Cc3cccc(F)c3C2)CN1C(=O)[C@@H](Nc1cccc(C(=O)NCCN(C)C)c1)C(C)(C)C)C(=O)NS(=O)(=O)C1CC1` [Compound 13], the IC50 [1] is reported as < 100 nM and the EC50 [2] is reported as > 1000 nM.

`C=C[C@@H]1C[C@]1(NC(=O)[C@@H]1Cc2cc(Oc3cccc(Cl)c3)ccc2CN1C(=O)[C@@H](Nc1cccc(C(F)(F)F)c1)C(C)(C)C)C(=O)NS(=O)(=O)C1(C)CC1` [Compound 21] was tested, and the IC50 [1] was < 100 nM.

With `C=C[C@@H]1C[C@]1(NC(=O)[C@@H]1Cc2cc(Oc3cccc(Cl)c3)ccc2CN1C(=O)[C@@H](Nc1ccc(F)cc1)C(C)(C)C)C(=O)NS(=O)(=O)C1(C)CC1` [Compound 25] the IC50 [1] was < 100 nM.

With `C=C[C@@H]1C[C@]1(NC(=O)[C@H]1Cc2cc(Oc3cccc(Cl)c3)ccc2CN1C(=O)[C@@H](Nc1ccc(F)cc1)C(C)(C)C)C(=O)NS(=O)(=O)C1(C)CC1` [Compound 26] the IC50 [1] was 100 to 1000 nM.

For `C=C[C@@H]1C[C@]1(NC(=O)[C@@H]1Cc2cc(Oc3cccc(Cl)c3)ccc2CN1C(=O)[C@@H](Nc1ccc(F)cc1)C(C)(C)C)C(=O)NS(=O)(=O)C1CC1` [Compound 27], the IC50 [1] was < 100 nM.

Compound `C=C[C@@H]1C[C@]1(NC(=O)[C@@H]1Cc2cc(Oc3cccc(Cl)c3)ccc2CN1C(=O)[C@@H](Nc1ccc(F)cc1)C(C)(C)C)C(=O)NS(=O)(=O)C1CC1` [Compound 28] has an IC50 [1] of 100 to 1000 nM.

With `CC[C@@H]1C[C@]1(NC(=O)[C@@H]1C[C@@H](Oc2cc(-c3nc(C(C)C)cs3)nc3c(C)c(OC)ccc23)CN1C(=O)[C@@H](Nc1cc(F)cc(C(F)(F)F)c1)C(C)(C)C)C(=O)NS(=O)(=O)C1(C)CC1` [Compound 300] the EC50 [2] was < 100 nM.
